Reference: ChEMBL document CHEMBL3045499, “Chem-bioinformatics and in vitro approaches for candidate optimization: a case study of NSC745689 as a promising antitumor agent” (Med Chem Res, 2013)
Activity calls are given as the source filed them. The calls are words filed in the database; no cut-off is given here.

How the values were obtained:
HOP-62 = experiment: Growth inhibition of Homo sapiens (human) HOP62 cells after 48 hr by SRB assay; assay type: functional; details: HOP-62, 48 h
HOP-92 [1] = experiment: Growth inhibition of Homo sapiens (human) HOP92 cells after 48 hr by SRB assay; assay type: functional; details: HOP-92, 48 h
SR = experiment: Growth inhibition of Homo sapiens (human) SR cells after 48 hr by SRB assay; assay type: functional
A549 = experiment: Growth inhibition of Homo sapiens (human) A549/ATCC cells after 48 hr by SRB assay; assay type: functional; details: A549, 48 h
EKVX = experiment: Growth inhibition of Homo sapiens (human) EKVX cells after 48 hr by SRB assay; assay type: functional
MOLT-4 = experiment: Growth inhibition of Homo sapiens (human) MOLT4 cells after 48 hr by SRB assay; assay type: functional; details: MOLT-4, 48 h
RPMI-8226 = experiment: Growth inhibition of Homo sapiens (human) RPMI8226 cells after 48 hr by SRB assay; assay type: functional; details: RPMI-8226, 48 h
CCRF-CEM = experiment: Growth inhibition of Homo sapiens (human) CCRF-CEM cells after 48 hr by SRB assay; assay type: functional
HL-60(TB) = experiment: Growth inhibition of Homo sapiens (human) HL-60(TB) cells after 48 hr by SRB assay; assay type: functional; details: HL-60, 48 h
K562 = experiment: Growth inhibition of Homo sapiens (human) K562 cells after 48 hr by SRB assay; assay type: functional; details: K562, 48 h
T47D = experiment: Growth inhibition of Homo sapiens (human) T47D cells after 48 hr by SRB assay; assay type: functional
MDA-MB-468 = experiment: Growth inhibition of Homo sapiens (human) MDA-MB-468 cells after 48 hr by SRB assay; assay type: functional; details: MDA-MB-468, 48 h
BT-549 = experiment: Growth inhibition of Homo sapiens (human) BT549 cells after 48 hr by SRB assay; assay type: functional; details: BT-549, 48 h
Hs-578T = experiment: Growth inhibition of Homo sapiens (human) Hs 578T cells after 48 hr by SRB assay; assay type: functional
MDA-MB-435 = experiment: Growth inhibition of Homo sapiens (human) MDA-MB-435 cells after 48 hr by SRB assay; assay type: functional; details: MDA-MB-435, 48 h
NCI/ADR-RES = experiment: Growth inhibition of Homo sapiens (human) NCI/ADR-RES cells after 48 hr by SRB assay; assay type: functional
MDA-MB-231 = experiment: Growth inhibition of Homo sapiens (human) MDA-MB-231/ATCC cells after 48 hr by SRB assay; assay type: functional; details: MDA-MB-231, 48 h
SNB-75 [2] = experiment: Growth inhibition of Homo sapiens (human) SNB75 cells after 48 hr by SRB assay; assay type: functional; details: SNB-75, 48 h
U-251 = experiment: Growth inhibition of Homo sapiens (human) U251 cells after 48 hr by SRB assay; assay type: functional; details: U-251, 48 h
MCF7 = experiment: Growth inhibition of Homo sapiens (human) MCF7 cells after 48 hr by SRB assay; assay type: functional; details: MCF7, 48 h
SF-539 = experiment: Growth inhibition of Homo sapiens (human) SF539 cells after 48 hr by SRB assay; assay type: functional; details: SF-539, 48 h
SNB-19 = experiment: Growth inhibition of Homo sapiens (human) SNB19 cells after 48 hr by SRB assay; assay type: functional; details: SNB-19, 48 h
SF-268 = experiment: Growth inhibition of Homo sapiens (human) SF268 cells after 48 hr by SRB assay; assay type: functional; details: SF-268, 48 h
SF-295 = experiment: Growth inhibition of Homo sapiens (human) SF295 cells after 48 hr by SRB assay; assay type: functional; details: SF-295, 48 h
NCI-H460 = experiment: Growth inhibition of Homo sapiens (human) NCI-H460 cells after 48 hr by SRB assay; assay type: functional; details: NCI-H460, 48 h
NCI-H522 = experiment: Growth inhibition of Homo sapiens (human) NCI-H522 cells after 48 hr by SRB assay; assay type: functional; details: NCI-H522, 48 h
NCI-H226 = experiment: Growth inhibition of Homo sapiens (human) NCI-H226 cells after 48 hr by SRB assay; assay type: functional; details: NCI-H226, 48 h
NCI-H23 = experiment: Growth inhibition of Homo sapiens (human) NCI-H23 cells after 48 hr by SRB assay; assay type: functional; details: NCI-H23, 48 h
NCI-H322M = experiment: Growth inhibition of Homo sapiens (human) NCI-H322M cells after 48 hr by SRB assay; assay type: functional
SNB-75 [3] = experiment: Growth inhibition of Homo sapiens (human) SNB75 cells at 1 uM after 48 hr by SRB assay; assay type: functional, cell-based
HOP-92 [4] = experiment: Growth inhibition of Homo sapiens (human) HOP92 cells at 1 uM after 48 hr by SRB assay; assay type: functional, cell-based
Cytochrome P450 1A1 = Cytochrome P450 1A1 (Homo sapiens, UniProt P04798); experiment: Inhibition of recombinant CYP1A1 (unknown origin) using 7-ethoxyresorufin as substrate by EROD assay
Cytochrome P450 1A1, sequence (P04798 whole entry): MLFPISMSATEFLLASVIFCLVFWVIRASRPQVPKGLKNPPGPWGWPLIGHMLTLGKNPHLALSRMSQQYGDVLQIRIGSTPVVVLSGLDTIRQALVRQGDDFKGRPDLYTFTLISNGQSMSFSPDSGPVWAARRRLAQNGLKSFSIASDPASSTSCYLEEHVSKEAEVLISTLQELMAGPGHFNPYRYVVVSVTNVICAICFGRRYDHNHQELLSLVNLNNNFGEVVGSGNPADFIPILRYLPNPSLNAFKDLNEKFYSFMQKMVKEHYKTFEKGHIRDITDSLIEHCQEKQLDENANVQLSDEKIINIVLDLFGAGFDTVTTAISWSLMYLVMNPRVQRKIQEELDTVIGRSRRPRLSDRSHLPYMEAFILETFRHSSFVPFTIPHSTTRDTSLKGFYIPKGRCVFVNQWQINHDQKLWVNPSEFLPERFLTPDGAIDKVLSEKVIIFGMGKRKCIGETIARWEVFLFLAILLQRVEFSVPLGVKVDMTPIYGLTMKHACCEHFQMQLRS

| SMILES | GI50 (HOP-62) [µM] | GI50 (HOP-92 [1]; read-out: pGI50 (converted)) [µM] | GI50 (SR) [µM] | GI50 (EKVX) [µM] | GI50 (MOLT-4) [µM] | GI50 (HL-60(TB)) [µM] | GI50 (K562) [µM] | GI50 (T47D) [µM] | GI50 (BT-549) [µM] | GI50 (Hs-578T; read-out: pGI50 (converted)) [µM] | GI50 (MDA-MB-435) [µM] | GI50 (NCI/ADR-RES) [µM] | GI50 (MDA-MB-231) [µM] | GI50 (SNB-75 [2]; read-out: pGI50 (converted)) [µM] | GI50 (U-251) [µM] | GI50 (MCF7) [µM] | GI50 (SF-539) [µM] | GI50 (SNB-19) [µM] | GI50 (SF-268) [µM] | GI50 (SF-295) [µM] | also measured |
| --- | --- | --- | --- | --- | --- | --- | --- | --- | --- | --- | --- | --- | --- | --- | --- | --- | --- | --- | --- | --- | --- |
| COc1ccc(Nc2nc3sc4cc(Cl)ccc4n3c(=N)c2C#N)cc1 | 3.39 | 20.9 | 19.1 | 1.91 | 13.2 | 34.7 | 57.5 | 29.5 | 4.07 | 0.407 | 3.09 | 2.82 | 2.04 | 3.39 | 4.07 | 2.51 | 30.9 | 40.7 | 4.37 | 1.7 | GI50 (A549): 50.1 µM; GI50 (RPMI-8226): 17 µM; GI50 (CCRF-CEM): 17.4 µM; GI50 (MDA-MB-468): 3.55 µM; GI50 (Hs-578T; read-out: GI50): 0.406 µM; GI50 (NCI-H460): 26.3 µM; GI50 (NCI-H522): 33.1 µM; GI50 (NCI-H226): 1.91 µM; GI50 (NCI-H23): 1.55 µM; GI50 (NCI-H322M): 3.31 µM |
| CSc1nc2sc3cc(Cl)ccc3n2c(=N)c1C#N | 38 | 0.01 | 9.77 | 9.77 | 2.51 | 1.35 | 27.5 | 28.2 | 23.4 | 4.9 | > 100 | 17.8 | 74.1 | 12.3 | 30.2 | 3.89 | 26.9 | 40.7 | 21.4 | 2.19 | GI50 (HOP-92 [1]; read-out: GI50): 0.219 µM; GI50 (A549): 5.89 µM; GI50 (RPMI-8226): 64.6 µM; GI50 (CCRF-CEM): 3.55 µM; growth inhibition (GI) (SNB-75 [3]): Active; growth inhibition (GI) (HOP-92 [4]): Active; IC50 (Cytochrome P450 1A1): 2.5 µM; GI50 (Hs-578T; read-out: GI50): 1.71 µM; GI50 (SNB-75 [2]; read-out: GI50): 0.416 µM; GI50 (NCI-H460): 63.1 µM; GI50 (NCI-H522): 60.3 µM; GI50 (NCI-H226): 38 µM; GI50 (NCI-H23): 26.9 µM; GI50 (NCI-H322M): > 100 µM |
| N#Cc1c(Nc2ccc(Cl)cc2)nc2sc3cc(Cl)ccc3n2c1=N | 0.00457 | > 100 | 2.29 | 10.2 | 2.51 | > 100 | > 100 | > 100 | 24.5 | 1.45 | 6.17 | 4.68 | 7.24 | 5.01 | 6.61 | 1.82 | 8.71 | > 100 | 4.07 | 3.02 | GI50 (HOP-92 [1]; read-out: GI50): 1.82 µM; GI50 (MDA-MB-468): 3.63 µM; GI50 (NCI-H460): 21.9 µM; GI50 (NCI-H226): 2.4 µM; GI50 (NCI-H23): 0.646 µM; GI50 (NCI-H322M): 28.2 µM |
